Legend:
[1] = tested on: ECa-109 cell line; assay: Antiproliferative activity against human ECA109 cells after 48 hrs by MTT assay; format: functional, cell-based; conditions: ECa-109, 48 h
[2] = tested on: EC9706; assay: Antiproliferative activity against human EC9706 cells after 48 hrs by MTT assay; format: functional, cell-based; conditions: EC9706, 48 h
[3] = tested on: EC9706; assay: Potency index, ratio of 5-fluorouracil IC50 to test compound IC50 for human EC9706 cells; format: functional
[4] = Potency index, ratio of 5-fluorouracil IC50 to test compound IC50 for human ECA109 cells; format: functional

Row | SMILES | IC50 [1] [µM] | IC50 [2] [µM] | Ratio IC50 [3] | Ratio IC50 [4]
1 | CC1SC(c2ccc([N+](=O)[O-])cc2)c2cc3c(cc2NC1=O)OCO3 (stereo not given) | 50.4 | 34.7 |  | 
2 | O=C1CSC(c2ccc(F)cc2)c2cc3c(cc2N1)OCO3 (stereo not given) | > 200 | 106 |  | 
3 | O=C1CSC(c2ccccc2)c2cc3c(cc2N1)OCO3 (stereo not given) | 38.7 | 43.2 |  | 
4 | Cc1ccccc1C1SCC(=O)Nc2cc3c(cc21)OCO3 (stereo not given) | 55.5 | 33.5 |  | 
5 | COc1cccc(C2SCC(=O)Nc3cc4c(cc32)OCO4)c1 (stereo not given) | 49.6 | 54.6 |  | 
6 | O=C1CSC(c2cccs2)c2cc3c(cc2N1)OCO3 (stereo not given) | 95.5 | 69.6 |  | 
7 | O=c1[nH]cc(F)c(=O)[nH]1 [FLUOROURACIL] | 30.2 | 23.3 |  | 
8 | COc1ccc(C2SCC(=O)Nc3cc4c(cc32)OCO4)cc1 (stereo not given) | 33 | 16.4 |  | 
9 | CC1SC(c2ccc(Cl)cc2)c2cc3c(cc2NC1=O)OCO3 (stereo not given) | > 200 | > 200 |  | 
10 | O=C1CSC(c2ccco2)c2cc3c(cc2N1)OCO3 (stereo not given) | 42 | 30.3 |  | 
11 | O=C1CSC(c2ccc([N+](=O)[O-])cc2)c2cc3c(cc2N1)OCO3 (stereo not given) | 42.3 | 24.9 |  | 
12 | O=C1CSC(c2ccc(Cl)cc2)c2cc3c(cc2N1)OCO3 (stereo not given) | 36.2 | 34.4 |  | 
13 | CC1SC(c2cccc([N+](=O)[O-])c2)c2cc3c(cc2NC1=O)OCO3 (stereo not given) | 106 | 88.4 |  | 
14 | COc1ccc(C2SCC(=O)Nc3cc4c(cc32)OCO4)cc1Br (stereo not given) | 16.2 | 8.23 | 2 - 3 | 2 - 3
15 | Cc1ccc(C2SC(C)C(=O)Nc3cc4c(cc32)OCO4)cc1 (stereo not given) | > 200 | > 200 |  | 
16 | O=C1CSC(c2cccc([N+](=O)[O-])c2)c2cc3c(cc2N1)OCO3 (stereo not given) | > 200 | > 200 |  | 
17 | COc1cc(C2SCC(=O)Nc3cc4c(cc32)OCO4)cc(OC)c1OC (stereo not given) | 130 | 70.9 |  | 
18 | COc1cc(OC)cc(C2SCC(=O)Nc3cc4c(cc32)OCO4)c1 (stereo not given) | 30.3 | 11.7 |  | 
19 | Cc1ccc(C2SCC(=O)Nc3cc4c(cc32)OCO4)cc1 (stereo not given) | 27.7 | 17.1 |  | 

Reference: ChEMBL document CHEMBL3997799, “Synthesis and anti-proliferative activity evaluation of novel benzo[d][1,3] dioxoles-fused 1,4-thiazepines” (Eur J Med Chem, 2017)
